Results from ChEMBL document CHEMBL4425093, “Picrasidine N Is a Subtype-Selective PPARβ/δ Agonist” (J Nat Prod, 2016).
The source made the active and inactive calls. No cut-off for these calls is given here.

Columns and labels:
HepG2 [1] = test: Induction of PPRE transcriptional activation in human HepG2 cells at 10 uM incubated for 24 hrs by dual luciferase reporter gene assay; format: functional, cell-based
HepG2 [2] = test: Upregulation of ANGPTL4 mRNA expression in human HepG2 cells transfected with PPARbeta/delta siRNA at 10 uM after 24 hrs by qRT-PCR method; format: functional, cell-based
[3] = molecular target: T1, Peroxisome proliferator-activated receptor delta (Homo sapiens) (UniProt Q03181); test: Agonist activity at GAL4-DBD fused human PPARbeta/delta-LBD (136 to 441 residues) expressed in human HepG2 cells at 10 uM by luciferase reporter gene based mammalian one hybrid assay; format: cell-based
T1 sequence (whole entry): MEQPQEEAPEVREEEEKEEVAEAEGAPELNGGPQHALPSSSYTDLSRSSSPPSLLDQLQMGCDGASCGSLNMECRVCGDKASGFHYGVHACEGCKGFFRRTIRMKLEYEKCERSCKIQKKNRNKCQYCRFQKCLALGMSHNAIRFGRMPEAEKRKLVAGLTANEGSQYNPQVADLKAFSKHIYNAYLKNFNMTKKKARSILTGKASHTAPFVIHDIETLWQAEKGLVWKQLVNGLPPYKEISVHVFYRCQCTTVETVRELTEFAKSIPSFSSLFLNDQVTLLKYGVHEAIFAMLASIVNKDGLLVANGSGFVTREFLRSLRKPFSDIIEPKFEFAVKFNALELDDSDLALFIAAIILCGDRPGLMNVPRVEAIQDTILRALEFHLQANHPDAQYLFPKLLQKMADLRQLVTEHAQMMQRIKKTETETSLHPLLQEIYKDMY

[4] = molecular target: T1, Peroxisome proliferator-activated receptor delta (Homo sapiens); test: Agonist activity at full length human N-terminal Myc-tagged PPARbeta/delta expressed in human HepG2 cells coexpressing RXRalpha assessed as transcriptional activation of PPRE incubated for 24 hrs by dual luciferase reporter gene assay; format: cell-based
[5] = molecular target: T1, Peroxisome proliferator-activated receptor delta (Homo sapiens); test: Agonist activity at GAL4-DBD fused human PPARbeta/delta-LBD (136 to 441 residues) expressed in human HepG2 cells after 24 hrs by dual luciferase reporter gene assay; format: cell-based
[6] = molecular target: T2, Peroxisome proliferator-activated receptor alpha (Homo sapiens) (UniProt Q07869); test: Agonist activity at GAL4-DBD fused human PPARalpha-LBD (159 to 468 residues) expressed in human HepG2 cells at 0.1 to 20 uM after 24 hrs by dual luciferase reporter gene assay; format: cell-based
T2 sequence (whole entry): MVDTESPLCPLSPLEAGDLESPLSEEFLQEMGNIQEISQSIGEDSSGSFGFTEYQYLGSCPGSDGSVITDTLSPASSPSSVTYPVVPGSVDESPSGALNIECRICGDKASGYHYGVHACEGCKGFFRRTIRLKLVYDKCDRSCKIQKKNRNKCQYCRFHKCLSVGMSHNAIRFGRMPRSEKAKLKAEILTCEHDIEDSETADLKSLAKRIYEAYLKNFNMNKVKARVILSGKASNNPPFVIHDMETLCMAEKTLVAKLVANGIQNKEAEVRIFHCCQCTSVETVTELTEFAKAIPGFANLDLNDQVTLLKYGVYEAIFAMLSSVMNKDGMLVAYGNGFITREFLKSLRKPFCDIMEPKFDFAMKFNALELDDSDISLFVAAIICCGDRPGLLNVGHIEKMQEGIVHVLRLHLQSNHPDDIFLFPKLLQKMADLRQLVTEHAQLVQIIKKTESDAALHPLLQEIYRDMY

[7] = molecular target: T3, Peroxisome proliferator-activated receptor gamma (Homo sapiens) (UniProt P37231); test: Agonist activity at GAL4-DBD fused human PPARgamma-LBD (157 to 475 residues) expressed in human HepG2 cells at 0.1 to 20 uM after 24 hrs by dual luciferase reporter gene assay; format: cell-based
T3 sequence (whole entry): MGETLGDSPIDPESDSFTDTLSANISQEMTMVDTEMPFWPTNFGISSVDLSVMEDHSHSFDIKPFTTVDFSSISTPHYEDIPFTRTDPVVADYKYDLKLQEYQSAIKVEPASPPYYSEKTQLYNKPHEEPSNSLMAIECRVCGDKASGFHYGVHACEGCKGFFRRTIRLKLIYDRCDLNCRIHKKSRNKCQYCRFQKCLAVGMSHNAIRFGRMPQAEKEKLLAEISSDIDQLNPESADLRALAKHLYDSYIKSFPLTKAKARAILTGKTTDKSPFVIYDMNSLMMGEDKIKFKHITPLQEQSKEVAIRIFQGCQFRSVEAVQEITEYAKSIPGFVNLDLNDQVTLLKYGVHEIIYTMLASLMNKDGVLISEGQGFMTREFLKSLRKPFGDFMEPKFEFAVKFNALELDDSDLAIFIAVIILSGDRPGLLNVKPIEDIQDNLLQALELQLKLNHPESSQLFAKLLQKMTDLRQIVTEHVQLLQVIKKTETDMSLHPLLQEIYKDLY

[8] = molecular target: T1, Peroxisome proliferator-activated receptor delta (Homo sapiens); test: Agonist activity at PPARbeta/delta in human HepG2 cells assessed as induction of ANGPTL4 mRNA expression incubated for 24 hrs by qRT-PCR method; format: cell-based
[9] = molecular target: T1, Peroxisome proliferator-activated receptor delta (Homo sapiens); test: Agonist activity PPARbeta/delta in human MCF7 cells assessed as induction of ANGPTL4 mRNA expression at 10 uM incubated for 24 hrs by qRT-PCR method; format: cell-based
[10] = molecular target: T1, Peroxisome proliferator-activated receptor delta (Homo sapiens); test: Agonist activity PPARbeta/delta in human PC3 cells assessed as induction of ANGPTL4 mRNA expression at 10 uM incubated for 24 hrs by qRT-PCR method; format: cell-based

Cc1cc(SCc2sc(-c3ccc(C(F)(F)F)c(F)c3)nc2C)ccc1OCC(=O)O
Activity (HepG2 [1]): Active
Activity (HepG2 [2]): inactive

CCCCn1ccc2c3n(c(=O)c(=O)cc1-3)c1ccccc21
Activity [3]: inactive

COc1cccc2c1[nH]c1c(CCn3ccc4c5n(c(=O)c(=O)cc3-5)c3ccccc43)ncc(OC)c12
Activity [3]: inactive

COc1cnc(CCn2ccc3c4n(c(=O)c(=O)cc2-4)c2ccccc32)c2c1c1ccccc1n2OC
Activity (HepG2 [1]): Active
Activity [4]: Dose-dependent effect
Activity [5]: Dose-dependent effect
Activity [6]: inactive
Activity [7]: Active
Activity [8]: Dose-dependent effect
Activity (HepG2 [2]): inactive
Activity [9]: Active
Activity [10]: inactive
